Assay results reported in patent US20110195900A1, “PEPTIDIC PTH RECEPTOR AGONISTS” (FERRING B.V., priority 2008, published 2011).
Non-standard residues stand in square brackets, D forms with d. Residues, ends and D or L forms follow the SMILES beside them. 1Nal = N[C@@H](Cc1cccc2ccccc12)C(=O)O; β3hI = CC[C@H](C)[C@H](N)CC(=O)O; β3hF = N[C@H](CC(=O)O)Cc1ccccc1; hSer = N[C@@H](CCO)C(=O)O; Nle = CCCC[C@H](N)C(=O)O; Aib = CC(C)(N)C(=O)O

Biological target: T1, human PTH-1 receptor (Homo sapiens, UniProt Q03431)
T1 construct: expressed in transfected cells; host or cells: HEK-293
T1 sequence (Q03431 27-593): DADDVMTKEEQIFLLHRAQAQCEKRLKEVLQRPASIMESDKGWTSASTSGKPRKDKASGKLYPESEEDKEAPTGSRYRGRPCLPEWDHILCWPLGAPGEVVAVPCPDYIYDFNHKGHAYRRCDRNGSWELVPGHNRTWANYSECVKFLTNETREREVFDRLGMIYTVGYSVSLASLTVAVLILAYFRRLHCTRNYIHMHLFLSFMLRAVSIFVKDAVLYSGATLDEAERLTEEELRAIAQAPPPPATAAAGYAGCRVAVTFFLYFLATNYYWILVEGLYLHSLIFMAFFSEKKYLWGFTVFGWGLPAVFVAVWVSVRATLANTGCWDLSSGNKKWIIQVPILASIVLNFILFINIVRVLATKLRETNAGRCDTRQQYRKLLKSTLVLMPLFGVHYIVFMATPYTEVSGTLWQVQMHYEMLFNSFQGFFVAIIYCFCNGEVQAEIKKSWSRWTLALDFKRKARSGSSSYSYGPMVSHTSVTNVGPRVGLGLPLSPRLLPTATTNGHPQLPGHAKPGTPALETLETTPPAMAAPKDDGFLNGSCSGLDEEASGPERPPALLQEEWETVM
Test: Reporter gene assay (CRE-luciferase) for agonist activity in transiently transfected HEK-293 cells
Format: cell-based
Settings: for hPTHR-2/hPTHR-1: Table 3, ratio of EC50 values, selectivity for hPTH-1 receptor over hPTH-2 receptor
Method in brief: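 Selectivity came from luciferase transcriptional reporter assays expressing human PTH-2 receptor. PTH-1 agonism used transiently transfected HEK-293 cells carrying SV40-promoter receptor and cAMP-responsive-element luciferase; 4-5 h compound exposure, lysis, luminescence, non-linear-regression EC50/efficacy; ≥3 independent runs, PTH (1-34) control each.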

Row | SMILES | EC50 [pM] | hPTHR-2/hPTHR-1
1 | CCCC[C@H](NC(=O)[C@H](CC(C)C)NC(=O)[C@H](CCC(N)=O)NC(=O)[C@@H](NC(=O)[C@H](CCC(=O)O)NC(=O)[C@H](CO)NC(=O)[C@@H](NC(=O)[C@@H](N)CO)C(C)C)[C@@H](C)CC)C(=O)N[C@@H](Cc1c[nH]cn1)C(=O)N[C@@H](CC(N)=O)C(=O)N[C@@H](CC(C)C)C(=O)NCC(=O)NC(C)(C)C(=O)N[C@@H](Cc1c[nH]cn1)C(=O)N[C@@H](CC(C)C)C(=O)N[C@@H](CC(N)=O)C(=O)N[C@@H](CO)C(=O)N[C@H](CC(=O)N[C@@H](CCC(=O)O)C(=O)N[C@@H](CCCNC(=N)N)C(=O)N[C@H](C(=O)N[C@@H](CCC(=O)O)C(=O)N[C@@H](Cc1cccc2ccccc12)C(=O)N[C@@H](CC(C)C)C(=O)N[C@@H](CCCNC(=N)N)C(=O)N[C@@H](CCCCN)C(=O)N[C@@H](CC(C)C)C(=O)N[C@@H](CC(C)C)C(=O)N[C@@H](CCC(N)=O)C(=O)N[C@@H](CC(=O)O)C(=O)N[C@H](C(=O)N[C@@H](Cc1c[nH]cn1)C(=O)N[C@@H](CC(N)=O)C(=O)N[C@@H](Cc1ccccc1)C(N)=O)C(C)C)C(C)C)[C@@H](C)CC [SEQ ID NO: 33, [Nle^8, Aib^13, β-hIle^18,1-Nal^23, Leu^27] hPTH (1-34)-NH2] (H-SVSEIQL[Nle]HNLG[Aib]HLNS[β3hI]ERVE[1Nal]LRKLLQDVHNF-NH2) | 140 | 481
2 | CCCC[C@H](NC(=O)[C@H](CC(C)C)NC(=O)[C@H](CCC(N)=O)NC(=O)[C@@H](NC(=O)[C@H](CCC(=O)O)NC(=O)[C@H](CO)NC(=O)[C@@H](NC(=O)[C@@H](N)CO)C(C)C)[C@@H](C)CC)C(=O)N[C@@H](Cc1c[nH]cn1)C(=O)N[C@@H](CC(N)=O)C(=O)N[C@@H](CC(C)C)C(=O)NCC(=O)N[C@@H](CCCCN)C(=O)N[C@@H](Cc1c[nH]cn1)C(=O)N[C@@H](CC(C)C)C(=O)N[C@@H](CCCCN)C(=O)N[C@@H](CO)C(=O)N[C@H](CC(=O)N[C@@H](CCC(=O)O)C(=O)N[C@@H](CCCNC(=N)N)C(=O)N[C@H](C(=O)N[C@@H](CCC(=O)O)C(=O)N[C@@H](Cc1cccc2ccccc12)C(=O)N[C@@H](CC(C)C)C(=O)N[C@@H](CCCNC(=N)N)C(=O)N[C@@H](CCCCN)C(=O)N[C@@H](CC(C)C)C(=O)N[C@@H](CC(C)C)C(=O)N[C@@H](CCC(N)=O)C(=O)N[C@@H](CC(=O)O)C(=O)N[C@H](C(=O)N[C@@H](Cc1c[nH]cn1)C(=O)N[C@@H](CC(N)=O)C(=O)N[C@@H](Cc1ccccc1)C(N)=O)C(C)C)C(C)C)[C@@H](C)CC [SEQ ID NO: 34, [Nle^8, Lys^16, β-hIle^18,1-Nal^23, Leu^27] hPTH (1-34)-NH2] (H-SVSEIQL[Nle]HNLGKHLKS[β3hI]ERVE[1Nal]LRKLLQDVHNF-NH2; N-terminus assumed) | 80 | 373
3 | CCCC[C@H](NC(=O)[C@H](CC(C)C)NC(=O)[C@H](CCC(N)=O)NC(=O)[C@@H](NC(=O)[C@H](CCC(=O)O)NC(=O)[C@H](CO)NC(=O)[C@@H](NC(=O)[C@@H](N)CO)C(C)C)[C@@H](C)CC)C(=O)N[C@@H](Cc1c[nH]cn1)C(=O)N[C@@H](CO)C(=O)N[C@@H](CC(C)C)C(=O)NCC(=O)N[C@@H](CCCCN)C(=O)N[C@@H](Cc1c[nH]cn1)C(=O)N[C@@H](CC(C)C)C(=O)N[C@@H](CCCCN)C(=O)N[C@@H](CO)C(=O)N[C@H](CC(=O)N[C@@H](CCC(=O)O)C(=O)N[C@@H](CCCNC(=N)N)C(=O)N[C@H](C(=O)N[C@@H](CCC(=O)O)C(=O)N[C@@H](Cc1cccc2ccccc12)C(=O)N[C@@H](CC(C)C)C(=O)N[C@@H](CCCNC(=N)N)C(=O)N[C@@H](CCCCN)C(=O)N[C@@H](CC(C)C)C(=O)N[C@@H](CC(C)C)C(=O)N[C@@H](CCC(N)=O)C(=O)N[C@@H](CCCNC(=N)N)C(=O)N[C@H](C(=O)N[C@@H](Cc1c[nH]cn1)C(=O)N[C@@H](CCC(=O)O)C(=O)N[C@@H](Cc1ccccc1)C(N)=O)C(C)C)C(C)C)[C@@H](C)CC [SEQ ID NO: 40, [Nle^8, Ser^10, Lys^16, β-hIle^18,1-Nal^23, Leu^27, Arg^30, Glu^33] hPTH(1-34)-NH2] (H-SVSEIQL[Nle]HSLGKHLKS[β3hI]ERVE[1Nal]LRKLLQRVHEF-NH2) | 120 | 69
4 | CCCC[C@H](NC(=O)[C@H](CC(C)C)NC(=O)[C@H](CCC(N)=O)NC(=O)[C@@H](NC(=O)[C@H](CCC(=O)O)NC(=O)[C@H](CO)NC(=O)[C@@H](NC(=O)C(C)(C)N)C(C)C)[C@@H](C)CC)C(=O)N[C@@H](Cc1c[nH]cn1)C(=O)N[C@@H](CC(N)=O)C(=O)N[C@@H](CC(C)C)C(=O)NCC(=O)N[C@@H](CCCCN)C(=O)N[C@@H](Cc1c[nH]cn1)C(=O)N[C@@H](CC(C)C)C(=O)N[C@@H](CC(N)=O)C(=O)N[C@@H](CO)C(=O)N[C@H](CC(=O)N[C@@H](CCC(=O)O)C(=O)N[C@@H](CCCNC(=N)N)C(=O)N[C@H](C(=O)N[C@@H](CCC(=O)O)C(=O)N[C@@H](Cc1cccc2ccccc12)C(=O)N[C@@H](CC(C)C)C(=O)N[C@@H](CCCNC(=N)N)C(=O)N[C@@H](CCCCN)C(=O)N[C@@H](CC(C)C)C(=O)N[C@@H](CC(C)C)C(=O)N[C@@H](CCC(N)=O)C(=O)N[C@@H](CC(=O)O)C(=O)N[C@H](C(=O)N[C@@H](Cc1c[nH]cn1)C(=O)N[C@@H](CC(N)=O)C(=O)N[C@@H](Cc1ccccc1)C(N)=O)C(C)C)C(C)C)Cc1ccccc1 [SEQ ID NO: 42, [Aib^1, Nle^8, β-hPhe^18,1-Nal^23, Leu^27 hPTH (1-34)-NH2] (H-[Aib]VSEIQL[Nle]HNLGKHLNS[β3hF]ERVE[1Nal]LRKLLQDVHNF-NH2; N-terminus assumed) | 60 | 88
5 | CCCC[C@H](NC(=O)[C@H](CC(C)C)NC(=O)[C@H](CCC(N)=O)NC(=O)[C@@H](NC(=O)[C@H](CCC(=O)O)NC(=O)[C@H](CO)NC(=O)[C@@H](NC(=O)[C@@H](N)CO)C(C)C)[C@@H](C)CC)C(=O)N[C@@H](Cc1c[nH]cn1)C(=O)N[C@@H](CC(N)=O)C(=O)N[C@@H](CC(C)C)C(=O)NCC(=O)N[C@@H](CCCCN)C(=O)N[C@@H](Cc1c[nH]cn1)C(=O)N[C@@H](CC(C)C)C(=O)N[C@@H](CC(N)=O)C(=O)N[C@@H](CO)C(=O)N[C@H](CC(=O)N[C@@H](CCC(=O)O)C(=O)N[C@@H](CCCNC(=N)N)C(=O)N[C@H](C(=O)N[C@@H](CCC(=O)O)C(=O)N[C@@H](Cc1cccc2ccccc12)C(=O)N[C@@H](CC(C)C)C(=O)N[C@@H](CCCNC(=N)N)C(=O)N[C@@H](CCCCN)C(=O)N[C@@H](CC(C)C)C(=O)N[C@@H](CC(C)C)C(=O)N[C@@H](CCC(N)=O)C(=O)N[C@@H](CC(=O)O)C(=O)N[C@H](C(=O)N[C@@H](Cc1c[nH]cn1)C(=O)N[C@@H](CC(N)=O)C(=O)N[C@@H](Cc1ccccc1)C(N)=O)C(C)C)C(C)C)Cc1ccccc1 [SEQ ID NO: 46, [Nle^8, β-hPhe^18,1-Nal^23, Leu^27] hPTH (1-34)-NH2] (H-SVSEIQL[Nle]HNLGKHLNS[β3hF]ERVE[1Nal]LRKLLQDVHNF-NH2) | 110 | 94
6 | CCCC[C@H](NC(=O)[C@H](CC(C)C)NC(=O)[C@H](CCC(N)=O)NC(=O)[C@@H](NC(=O)[C@H](CCC(=O)O)NC(=O)[C@H](CO)NC(=O)[C@@H](NC(=O)C(C)(C)N)C(C)C)[C@@H](C)CC)C(=O)N[C@@H](Cc1c[nH]cn1)C(=O)N[C@@H](CC(N)=O)C(=O)N[C@@H](CC(C)C)C(=O)NCC(=O)N[C@@H](CCCCN)C(=O)N[C@@H](Cc1c[nH]cn1)C(=O)N[C@@H](CC(C)C)C(=O)N[C@@H](CC(N)=O)C(=O)N[C@H](CC(=O)N[C@@H](CCOC)C(=O)N[C@@H](CCC(=O)O)C(=O)N[C@@H](CCCNC(=N)N)C(=O)N[C@H](C(=O)N[C@@H](CCC(=O)O)C(=O)N[C@@H](Cc1cccc2ccccc12)C(=O)N[C@@H](CC(C)C)C(=O)N[C@@H](CCCNC(=N)N)C(=O)N[C@@H](CCCCN)C(=O)N[C@@H](CC(C)C)C(=O)N[C@@H](CC(C)C)C(=O)N[C@@H](CCC(N)=O)C(=O)N[C@@H](CC(=O)O)C(=O)N[C@H](C(=O)N[C@@H](Cc1c[nH]cn1)C(=O)N[C@@H](CC(N)=O)C(=O)N[C@@H](Cc1ccccc1)C(N)=O)C(C)C)C(C)C)Cc1ccccc1 [SEQ ID NO: 48, [Aib^1, Nle^8, β-hPhe^17, hSer(OMe)^18,1-Nal^23, Leu^27] hPTH-(1-34)-NH2] (H-[Aib]VSEIQL[Nle]HNLGKHLN[β3hF][hSer](Me)ERVE[1Nal]LRKLLQDVHNF-NH2) | 100 | 1152
